Key:
[1] = molecular target: HPV-16 E6 protein with Cys51 (Human papillomavirus type 16, UniProt P03126); format: binding; conditions: whole protein mass spectrum
[2] = molecular target: C51S (cysteine 51 mutation to serine) HPV-16 E6 protein (Human papillomavirus type 16, UniProt P03126, C58S); assay: whole protein mass spectra of mutant C51S HPV-16 E6 protein upon exposure to compound; format: binding, human papilloma virus 16; conditions: whole protein mass spectrum; cysteine 51 replaced by serine
Sequence of C51S (cysteine 51 mutation to serine) HPV-16 E6 protein (P03126 8-158 C58S): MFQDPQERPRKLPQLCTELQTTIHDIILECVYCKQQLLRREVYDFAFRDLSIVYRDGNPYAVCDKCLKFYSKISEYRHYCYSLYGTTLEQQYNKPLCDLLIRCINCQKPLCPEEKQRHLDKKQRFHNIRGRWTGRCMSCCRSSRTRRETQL

Sequence of HPV-16 E6 protein with Cys51 (P03126 8-158): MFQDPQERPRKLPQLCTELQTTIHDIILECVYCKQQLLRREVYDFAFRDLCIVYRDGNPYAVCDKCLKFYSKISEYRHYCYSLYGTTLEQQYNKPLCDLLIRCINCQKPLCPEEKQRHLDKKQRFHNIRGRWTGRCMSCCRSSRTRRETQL

| SMILES | mass shift of the HPV-16 E6 protein upon exposure to compound (covalent bonding at Cys51) [1] | mass shift of the C51S HPV-16 E6 protein upon exposure to compound [2] |
| --- | --- | --- |
| C=CC(=O)N1CCN(c2nc(CCc3ccc(F)c(OC)c3)nc3sc4c(c23)CCCC4)CC1 [Compound 1] | mass shift | lack of mass shift |
| C=CC(=O)N1CCN(c2nc(CCc3ccc(O)c(F)c3)nc3sc4c(c23)CCCC4)CC1 [Compound 2] | mass shift | lack of mass shift |
| C=CC(=O)N1CCN(c2nc(CCc3ccc(F)c(O)c3)nc3sc4c(c23)CCCC4)CC1 [Compound 3] | mass shift | lack of mass shift |
| C=CC(=O)N1CCN(c2nc(CCc3cc(F)c(OC)c(F)c3)nc3sc4c(c23)CCCC4)CC1 [Compound 4] | mass shift | lack of mass shift |
| C=CC(=O)N1CCN(c2nc(CCc3cnc(OC)c(F)c3)nc3sc4c(c23)CCCC4)CC1 [Compound 5] | mass shift | lack of mass shift |
| C=CC(=O)N1CCN(c2nc(CCc3ccc(OC)c(OC)c3)nc3sc4c(c23)CCCC4)CC1 [Compound 6] | mass shift | lack of mass shift |
| C=CC(=O)N1CCN(C(=O)CN2CCc3sccc3C2c2cccc3ccccc23)CC1 (stereo not shown) [Compound 7] | mass shift | lack of mass shift |
| C=CC(=O)N1CCN(c2nc(C3CCCC3)nc3cccc(F)c23)CC1 [Compound 8] | mass shift | lack of mass shift |
| C=CC(=O)N1CCN(C(=O)CN2CCc3sccc3C2c2cccc3ncccc23)CC1 (stereo not shown) [Compound 9] | mass shift | lack of mass shift |
| C=CC(=O)N1CCN(c2nc(CCc3ccc(OC)c(F)c3)nc3sc4c(c23)CCCC4)CC1 [Compound 10] | mass shift | lack of mass shift |
| C=CC(=O)N1CCN(c2nc(CCc3cccc(OC)c3)nc3ccccc23)C(C)C1 (stereo not shown) [Compound 11] | mass shift | lack of mass shift |
